Measurements from patent US20040033213A1, “Methods of modulating dendritic cells using adjuvants” (Corixa Corporation, priority 2002, published 2004).

How the values were obtained:
Type in all cases: cell-based
[1] = tested on: Human d7 Cultured Dendritic Cells; assay: Flow cytometry phenotype analysis of human d7 cultured dendritic cells after 24 h stimulation; conditions: for HLA-DR MFI: 7 day DCs, 24 h stimulation
[2] = tested on: cultured human dendritic cells (DC); assay: Flow cytometry of cell surface activation markers on human DCs restimulated 72 hours with AGPs (titration)
Method: Dendritic cells are developed in-vitro from human CD14+ monocyte precursors using standard 7 day GM-CSF ([…]) and IL-4 ([…]) culture conditions. The cultured DCs are >90% CD11c^+/HLA-DR^+/lineage^− by flow cytometry analysis. FIGS. 15-18 show the results of flow cytometry analysis of gated CD11c^+/HLA-DR^+/lineage^− human DCs after they were restimulated in-vitro for 72 hours in the presence of selected AGPs at a titration range of 0.1 μg/ml-2 μg/ml. Data is expressed as the percent of gated DCs which are positive for the indicated marker (y-axis) versus the logo10 of the AGP or lipid A concentration. R595 LPS was used in each induction at 10 ng/ml as a positive control—the negative control was unstimulated human dendritic cells cultured for 72 hours in the same medium conditions used for AGP stimulation. Data was analyzed using non-linear regression analysis—all data was modeled using a 3rd order polynomial to determiine the best curve fit.

[3] = tested on: 6-7 day cultured human dendritic cells; assay: ELISA of cytokines (IL-12 p40, IL-12 p70, TNF-α) in 22 h induction supernatants of cultured human dendritic cells; conditions: for IL-12 p40 / IL-12 p70 / TNF-α: 22 Hrs
Excerpt: Recent articles have described how human dendritic cells can be derived in vitro from CD14 positive monocyte precursors in peripheral blood. A “buffy coat” preparation can now be commonly obtained from a unit of normal human peripheral blood from a blood bank on request. The leukocyte fraction was harvested from this buffy coat preparation using standard ficoll centrifugation techniques. Subsequently, the leukocyte fraction was labeled with anti-CD 14 antibody coupled to magnetic microbeads. This preparation was then passed over a magnet (Miltanyi Biotech) and CD14 positive monocytes were collected. These CD14 positive monocyte precursors were then cultured for 5-7 days in vitro (5×10^5 cells/ml) with GM-CSF (20 ng/ml) for the duration of the culture. […] After the 24 hour in vitro stimulation culture, cells were washed twice and stained with a panel of monoclonal antibodies specific for different cell surface activation and co-receptor molecules found on mature, activated DCs.
Supernatants from DCs stimulated with LPS, MPL® immunostimulant-S, RC-527, RC-529, and RC-544 were collected and tested by ELISA analysis for cytokines.

[4] = tested on: cultured human DCs + autologous T cells
[5] = Exp. 091698, 24 h, LPS 10 ng/ml, others 100 ng/ml
[6] = Exp. 092398, 24 h, LPS 10 ng/ml, others 100 ng/ml
[7] = Exp. 093098, 24 h, LPS 10 ng/ml, others 100 ng/ml
[8] = Exp. # 092398, Day 7, LPS 10 ng/ml, others 100 ng/ml
[9] = Exp. # 093098, LPS 10 ng/ml, others 100 ng/ml

CCCCCCCCCCCCCC(=O)O[C@H](CCCCCCCCCCC)CC(=O)NCCO[C@@H]1O[C@H](CO)[C@@H](OP(=O)(O)O)[C@H](OC(=O)C[C@@H](CCCCCCCCCCC)OC(=O)CCCCCCCCCCCCC)[C@H]1NC(=O)C[C@@H](CCCCCCCCCCC)OC(=O)CCCCCCCCCCCCC.CCN(CC)CC [RC-529, 2-[(R)-3-Tetradecanoyloxytetradecanoylamino]ethyl 2-Deoxy-4-O-phosphono-3-O-[(R)-3-tetradecanoyoxytetradecanoyl]-2-[(R)-3-tetradecanoyoxytetradecanoylamino]-β-D-glucopyranoside triethylammonium salt]
CD 1a % positive cells [1, 5]: 94.3% | CD 1a MFI [1, 5]: 9.29 | CD 4 % positive cells [1, 5]: 77.0% | CD 4 MFI [1, 5]: 2.44 | CD 14 % positive cells [1, 5]: 7.5% | CD 35 % positive cells [1, 5]: 47.6% | CD 35 MFI [1, 5]: 2.66 | CD 40 MFI [1, 5]: 22.0 | CD 44 MFI [1, 5]: 285 | CD 54 MFI [1, 5]: 28.2 | CD 62 L % positive cells [1, 5]: 6.4% | CD 69 % positive cells [1, 5]: 4.4% | CD 80 % positive cells [1, 5]: 98.9% | CD 80 MFI [1, 5]: 6.19 | CD 83 % positive cells [1, 5]: 71.0% | CD 83 MFI [1, 5]: 2.89 | CD 86 % positive cells [1, 5]: 98.7% | CD 86 MFI [1, 5]: 9.30 | CD 95 % positive cells [1, 5]: 53.8% | CD 95 MFI [1, 5]: 1.12 | HLA-DR MFI ([1]; Exp. 091698, LPS 10 ng/ml, others 100 ng/ml): 88.2 | CD 1a % positive cells [1, 6]: 86.5% | CD 1a MFI [1, 6]: 5.47 | CD 4 % positive cells [1, 6]: 71.6% | CD 4 MFI [1, 6]: 2.65 | CD 14 % positive cells [1, 6]: 4.2% | CD 35 % positive cells [1, 6]: 58.8% | CD 35 MFI [1, 6]: 2.92 | CD 40 MFI [1, 6]: 31.5 | CD 54 MFI [1, 6]: 36.6 | CD 62 L % positive cells [1, 6]: 11.1% | CD 69 % positive cells [1, 6]: 11.0% | CD 80 % positive cells [1, 6]: 99.1% | CD 80 MFI [1, 6]: 8.46 | CD 83 % positive cells [1, 6]: 94.7% | CD 83 MFI [1, 6]: 3.32 | CD 86 % positive cells [1, 6]: 99.9% | CD 86 MFI [1, 6]: 25.3 | CD 95 % positive cells [1, 6]: 90.4% | CD 95 MFI [1, 6]: 1.43 | αC5aR + GAR Alexa % positive cells [1, 6]: 53.4% | CD 44 MFI ([1]; Exp. 092398, 24 h, LPS 10 ng/ml, others 100 ng/ml, values printed with a trailing +): 442+ | GAR-Alexa % positive cells ([1]; Exp. 092398, 24 h, secondary reagent staining, LPS 10 ng/ml, others 100 ng/ml): 2.4% | HLA-DR MFI ([1]; Exp. 092398, LPS 10 ng/ml, others 100 ng/ml): 158.8 | CCR 6 % positive cells [1, 7]: 5.3% | CD 1a % positive cells [1, 7]: 80.1% | CD 1a MFI [1, 7]: 6.51 | CD 3 % positive cells [1, 7]: 27.3% | CD 3 MFI [1, 7]: 3.87 | CD 4 % positive cells [1, 7]: 77.9% | CD 4 MFI [1, 7]: 2.97 | CD 11c % positive cells [1, 7]: 92.4% | CD 11c MFI [1, 7]: 6.82 | CD 14 % positive cells [1, 7]: 3.9% | CD 40 MFI [1, 7]: 26.1 | CD 54 MFI [1, 7]: 36.4 | CD 62 L % positive cells [1, 7]: 3.4% | CD 80 % positive cells [1, 7]: 99.1% | CD 80 MFI [1, 7]: 10.7 | CD 83 % positive cells [1, 7]: 82.4% | CD 83 MFI [1, 7]: 3.38 | CD 86 % positive cells [1, 7]: 99.7% | CD 86 MFI [1, 7]: 22.0 | CD 123 % positive cells [1, 7]: 44.1% | CD 123 MFI [1, 7]: 1.90 | αC5aR + Alexa 488 % positive cells [1, 7]: 48.6% | αC5aR + Alexa 488 MFI [1, 7]: 10.4 | HLA-DR MFI ([1]; Exp. 093098, LPS 10 ng/ml, others 100 ng/ml): 161.5 | upregulation of HLA-DR expression (in words) ([1]; RC-529 compared with RC-544, all three experiments): slightly more effective | stimulating the expression of HLA-DR and co-stimulatory molecules (in words) ([1]; RC-529 compared with RC-544, three experiments): very comparable effects | concentration at which the CD80 effect appears to plateau ([2]; 72 hours, FIG. 15): 1 µg/mL | concentration at which the CD86 effect plateaus or maximizes ([2]; 72 hours, FIG. 18): 1 µg/mL | cell surface expression of CD80 (in words) ([2]; 72 hours, titration 0.1-2 μg/ml, FIG. 15): lowest overall increase in CD80 expression | DC expression of CD83 (in words) ([2]; 72 hours, titration 0.1-2 μg/ml, FIG. 16): weak overall increase in CD83 expression | overall induction of DC maturation and co-stimulatory molecule expression (in words) ([2]; single analysis, one normal donor): very low to marginally positive CD80 and CD83 expression | IL-12 p40 ([3]; Exp. # 091698, LPS 10 ng/ml, others 100 ng/ml): 38,700 pg/mL/5 × 10^5 Cells | IL-12 p70 ([3]; Exp. # 092398 (second line, Day7), LPS 10 ng/ml, others 100 ng/ml): 215.3 pg/ml/5 × 10^5 Cells | IL-12 p40 [3, 8]: 127,500 pg/mL/5 × 10^5 Cells | TNF-α [3, 8]: 7,400 pg/mL/5 × 10^5 Cells | IL-12 p70 ([3]; Exp. # 092398 as printed (first line of section), LPS 10 ng/ml, others 100 ng/ml): 4.2 pg/ml/5 × 10^5 Cells | IL-12 p70 ([3]; Exp. # 092398 as printed (third line of section), LPS 10 ng/ml, others 100 ng/ml): 28.2 pg/ml/5 × 10^5 Cells | IL-12 p40 [3, 9]: 60,700 pg/mL/5 × 10^5 Cells | TNF-α [3, 9]: 372 pg/mL/5 × 10^5 Cells | IL-12 (p40) expression (in words) ([3]; all three experiments, LPS 10 ng/ml, others 100 ng/ml): also stimulated IL-12 (p40) responses | IL-12 (p70) (in words) ([3]; the one donor in which LPS and MPL-S gave a significant amount): high levels of IL-12 (p70) | TNF-α secretion (in words) ([3]; three donors): moderately lower than the effect due to RC-527 | T cell proliferation / DC activation, CPM 3H-thymidine response (in words) [4]: comparable in their effect and quantitatively higher than the background response
